What all share (assay type): biochemical
Experiment [1] deals with human recombinant FGFR2 catalytic structural domain protein (Homo sapiens (Human), UniProt P21802). The experiment is described as follows: FGFR2 activity inhibition test (HTRF kinase assay). To be noted: 50 μM ATP. The method, then: FGFR2 Activity Inhibition Test
The influence of the compound according to the present invention on the activity of fibroblast growth factor receptor 2 (FGFR2) was evaluated by an in vitro kinase assay experiment.
(§1) The experimental method is summarized as follows:
The in vitro activity of FGFR2 was determined by assaying the phosphorylation level of the substrate in the kinase reaction, by means of an HTRF kinase assay kit. The reaction buffer comprised the following components: 5-fold diluted Enzymatic buffer/kinase 5× (Cisbio, Catalog number 62EZBFDD) (main ingredient: 50 mM HEPES, pH 7.0), 5 mM MgCl2, 1 mM DTT; the human recombinant FGFR2 catalytic structural domain protein (amino acids 400-821) was commercially available from Beijing Sino Biological Inc., diluted with the reaction buffer to a 0.045 ng/μL kinase solution; the substrate reaction solution comprised a biotin labeled tyrosine kinase substrate diluted with the reaction buffer to 800 nM (Cisbio, catalog number 62TK0PEC), and 50 μM ATP, and the assay solution comprised an Eu^3+ labeled cage-shaped antibody (Cisbio, Catalog number 61T66KLB) diluted with the assay buffer (Cisbio, Catalog number 62SDBRDF) to 0.125 ng/μL, and 50 nM streptavidin labeled XL665 (Cisbio, Catalog number 610SAXLB).
(§2) The compound was dissolved and diluted in 100% DMSO to 100 μM, then 4-fold-series diluted with DMSO to a minimum concentration of 0.0061 μM, and each concentration point was then 40-fold diluted with the reaction buffer. If the IC50 value of the compound was very low, the initial concentration of the compound could be reduced.
(§3) 4 μL of a compound solution and 2 μL of an FGFR2 kinase solution were added into a 384 well assay plate (Thermo, Catalog number 264706), mixed uniformly and then incubated for 15 min at room temperature; subsequently, 4 μL of the substrate reaction solution was added therein, and the reaction mixture was incubated for 60 min at room temperature; and then 10 μL of an assay solution of an equal volume to the reaction was added therein and mixed uniformly, followed by placement at room temperature. After 60 min, the enzyme reaction was terminated by EDTA in the assay solution, and the phosphorylated products were identified by both the Eu^3+ labeled cage-shaped antibody (donor) and the streptavidin labeled XL665 antibody (receptor) at the same time. After the excitation with laser, the donors and receptors that were close to each other experienced energy resonance transfer, and the energy transferred from the donor (620 nm) to the receptor (665 nm) could be detected with Envision. The ratio of 665/620 is in positive correlation to the phosphorylation degree of the substrate, thereby to detect the FGFR2 kinase activity. […] The inhibition percentage of the compound against FGFR2 activity could be calculated with the following formula: Inhibition percentage=100−100*(signalcompound−signalnegative control)/(signalpositive control−signalnegative control)
(§4) The IC50 value of the compound was calculated by the following formula, from 10 concentration points, with XLfit (ID Business Solutions Ltd., UK): Y=Bottom+(Top−Bottom)/(1+10^((Log IC50−X)*slope factor))
(§5) Where, Y is the inhibition percentage, Bottom is the bottom plateau of the curve (the bottom plateau of the S-type curve), Top is the top plateau of the curve (the top plateau of the S-type curve), and X is the log value of the compound concentration to be measured.
(In TR-FRET formats the signal depends on donor and acceptor labels being close together.)

Experiment [2] deals with human recombinant FGFR3 catalytic structural domain protein (Homo sapiens (Human), UniProt P22607). The experiment is described as follows: FGFR3 activity inhibition test (HTRF kinase assay). To be noted: 90 μM ATP. Here is the method: FGFR3 Activity Inhibition Test
Sequence of human recombinant FGFR3 catalytic structural domain protein (P22607 399-806): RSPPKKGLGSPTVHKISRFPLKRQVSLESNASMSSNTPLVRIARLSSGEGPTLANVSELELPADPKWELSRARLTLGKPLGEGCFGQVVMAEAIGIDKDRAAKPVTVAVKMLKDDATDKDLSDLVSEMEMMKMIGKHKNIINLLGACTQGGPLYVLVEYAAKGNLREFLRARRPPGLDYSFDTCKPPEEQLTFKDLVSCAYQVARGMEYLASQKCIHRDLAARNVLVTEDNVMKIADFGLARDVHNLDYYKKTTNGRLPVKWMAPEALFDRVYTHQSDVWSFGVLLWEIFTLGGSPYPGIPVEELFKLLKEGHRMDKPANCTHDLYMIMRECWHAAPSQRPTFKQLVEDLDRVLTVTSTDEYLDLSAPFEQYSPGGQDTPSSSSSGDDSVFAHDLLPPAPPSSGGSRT
The influence of the compound according to the present invention on the activity of fibroblast growth factor receptor 3 (FGFR3) was evaluated by an in vitro kinase assay experiment.
as §1
The in vitro activity of FGFR3 was determined by assaying the phosphorylation level of the substrate in the kinase reaction, by means of an HTRF kinase assay kit. The reaction buffer comprised the following components: 5-fold diluted Enzymatic buffer/kinase 5× (Cisbio, Catalog number 62EZBFDD) (main ingredient: 50 mM HEPES, pH 7.0), 5 mM MgCl2, 1 mM DTT; the human recombinant FGFR3 catalytic structural domain protein (amino acids 399-806) was commercially available from Sino Biological Inc., diluted with the reaction buffer to a 0.3 ng/μL kinase solution; the substrate reaction solution comprised a biotin labeled tyrosine kinase substrate diluted with the reaction buffer to 1000 nM (Cisbio, catalog number 62TK0PEC), and 90 μM ATP, and the assay solution comprised an Eu^3+ labeled cage-shaped antibody (Cisbio, Catalog number 61T66KLB) diluted with the assay buffer (Cisbio, Catalog number 62SDBRDF) to 0.125 ng/μL, and 62.5 nM streptavidin labeled XL665 (Cisbio, Catalog number 610SAXLB).
as §2
as §3, with “an FGFR3” for “an FGFR2”, “the FGFR3” for “the FGFR2”
(§6) The IC50 value of the compound was calculated by the following formula, from 10 concentration points, with XLfit (ID Business Solutions Ltd., UK): Y=Bottom+(Top−Bottom)/(1+10^((Log IC50−X)*slope factor)) Where, Y is the inhibition percentage, Bottom is the bottom plateau of the curve (the bottom plateau of the S-type curve), Top is the top plateau of the curve (the top plateau of the S-type curve), and X is the log value of the compound concentration to be measured.

Experiment [3] has as its target human recombinant FGFR4 catalytic structural domain protein (Homo sapiens (Human), UniProt P22455). The experiment is described as follows: FGFR4 activity inhibition test (HTRF kinase assay). To be noted: 90 μM ATP. Here is the method:
FGFR4 Activity Inhibition Test
The influence of the compound according to the present invention on the activity of fibroblast growth factor receptor 4 (FGFR4) was evaluated by an in vitro kinase assay experiment.
as §1
The in vitro activity of FGFR4 was determined by assaying the phosphorylation level of the substrate in the kinase reaction, by means of an HTRF kinase assay kit.
(§7) If the IC50 value of the compound was very low, the initial concentration of the compound could be reduced.
After 60 min, the enzyme reaction was terminated by EDTA in the assay solution, and the phosphorylated products were identified by both the Eu^3+ labeled cage-shaped antibody (donor) and the streptavidin labeled XL665 antibody (receptor) at the same time. […] The inhibition percentage of the compound against FGFR4 activity could be calculated with the following formula: Inhibition percentage=100−100*(signalcompound−signalnegative control)/(signalpositive control−signalnegative control)
as §6

For experiment [4], the target named is human recombinant FGFR1 catalytic structural domain protein (Homo sapiens (Human), UniProt P11362). Briefly: FGFR1 activity inhibition test (HTRF kinase assay). Particulars: 40 μM ATP. Here is the method:
FGFR1 Activity Inhibition Test
The influence of the compound according to the present invention on the activity of fibroblast growth factor receptor 1 (FGFR1) was evaluated by an in vitro kinase assay experiment.
as §1
The in vitro activity of FGFR1 was determined by assaying the phosphorylation level of the substrate in the kinase reaction, by means of an HTRF kinase assay kit.
as §7
After 60 min, the enzyme reaction was terminated by EDTA in the assay solution, and the phosphorylated products were identified by both the Eu^3+ labeled cage-shaped antibody (donor) and the streptavidin labeled XL665 antibody (receptor) at the same time. […] The inhibition percentage of the compound against FGFR1 activity could be calculated with the following formula: Inhibition percentage=100−100*(signalcompound−signalnegative control)/(signalpositive control−signalnegative control)
as §4, §5

The structures appear in SMILES notation. pIC50: −log10 of the molar value.

The record followed here is patent publication US10590109B2, “Heterocyclic compounds used as FGFR inhibitors” (Nanjing InnoCare Pharma Tech Co., Ltd., priority 2016, dated 2020).

Sequence of human recombinant FGFR2 catalytic structural domain protein (P21802 400-821): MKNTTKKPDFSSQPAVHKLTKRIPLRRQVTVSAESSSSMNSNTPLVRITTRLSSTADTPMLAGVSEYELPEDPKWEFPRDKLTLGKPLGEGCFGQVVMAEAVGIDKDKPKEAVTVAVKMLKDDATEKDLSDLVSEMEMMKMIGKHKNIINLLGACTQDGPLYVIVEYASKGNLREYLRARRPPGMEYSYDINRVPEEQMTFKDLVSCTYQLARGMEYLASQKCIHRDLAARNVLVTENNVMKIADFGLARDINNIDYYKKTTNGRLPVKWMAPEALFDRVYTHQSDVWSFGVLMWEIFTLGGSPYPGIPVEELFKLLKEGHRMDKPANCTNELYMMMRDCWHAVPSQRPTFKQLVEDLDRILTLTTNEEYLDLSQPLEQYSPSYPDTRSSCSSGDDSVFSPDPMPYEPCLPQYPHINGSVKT
Sequence of human recombinant FGFR4 catalytic structural domain protein (P22455 460-802): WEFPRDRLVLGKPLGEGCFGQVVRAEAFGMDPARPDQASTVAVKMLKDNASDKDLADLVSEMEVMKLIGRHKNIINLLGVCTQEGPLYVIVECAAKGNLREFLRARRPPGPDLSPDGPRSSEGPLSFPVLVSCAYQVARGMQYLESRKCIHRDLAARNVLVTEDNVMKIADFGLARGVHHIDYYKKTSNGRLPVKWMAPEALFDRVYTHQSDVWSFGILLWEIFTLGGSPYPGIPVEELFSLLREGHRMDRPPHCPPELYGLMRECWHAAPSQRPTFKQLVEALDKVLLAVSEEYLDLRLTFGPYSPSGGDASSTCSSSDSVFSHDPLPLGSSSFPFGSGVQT
Sequence of human recombinant FGFR1 catalytic structural domain protein (P11362 other isoform, or with tags, fused parts or gaps): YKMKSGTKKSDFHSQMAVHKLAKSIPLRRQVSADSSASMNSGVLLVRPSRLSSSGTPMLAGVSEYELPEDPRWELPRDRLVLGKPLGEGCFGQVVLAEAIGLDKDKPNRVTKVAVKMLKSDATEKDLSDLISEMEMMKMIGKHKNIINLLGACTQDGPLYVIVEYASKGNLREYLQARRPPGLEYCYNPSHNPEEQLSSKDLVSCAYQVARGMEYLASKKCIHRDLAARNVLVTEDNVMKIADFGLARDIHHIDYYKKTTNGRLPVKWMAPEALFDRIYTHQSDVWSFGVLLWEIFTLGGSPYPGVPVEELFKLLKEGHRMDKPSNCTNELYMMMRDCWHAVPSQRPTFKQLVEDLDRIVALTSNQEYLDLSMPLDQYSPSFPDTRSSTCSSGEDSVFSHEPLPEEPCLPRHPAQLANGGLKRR

As usually defined, the pIC50 is the negative decadic logarithm of the IC50, by convention in mol/L. Turning to `CN(C(=O)Nc1cc(Cl)c(C#N)cn1)c1ccc(CN2CCOCC2=O)c(C=O)n1` [Compound 11], the pIC50 in experiment [1] was less than 6.00; in experiment [2], less than 6.00; in experiment [3], 7.00 to 8.00; in experiment [4], less than 6.00.

In the case of `CC(C)Oc1cc(NC(=O)N(C)c2ccc(CN3CCOCC3=O)c(C=O)n2)ncc1C#N` [Compound 13], the negative-log IC50 (pIC50) is less than 6.00 in experiment [1], less than 6.00 in experiment [2], 7.00 to 8.00 in experiment [3] and less than 6.00 in experiment [4].

Turning to `COCCOc1cc(NC(=O)N(C)c2ccc(CN3CCN(C)CC3=O)c(C=O)n2)ncc1C#N` [Compound 20, 3-(5-cyano-4-(2-methoxyethoxy)pyrid-2-yl)-1-(6-formyl-5-((4-methyl-2-carbonylpiperazin-1-yl)methyl)pyrid-2-yl)-1-methylurea], the pIC50 in experiment [1] was less than 6.00; in experiment [2], less than 6.00; in experiment [3], more than 8.00; in experiment [4], less than 6.00.

On to `COCCNc1cc(NC(=O)N(C)c2ccc(CO)c(C=O)n2)ncc1C#N` [Compound 21, 3-(5-cyano-4-((2-methoxyethyl)amino)pyrid-2-yl)-1-(6-formyl-5-(hydroxymethyl)pyrid-2-yl)-1-methylurea], for which the pIC50 was less than 6.00 in experiment [1], less than 6.00 in experiment [2], 6.00 to 7.00 in experiment [3] and less than 6.00 in experiment [4].

Turning to `CN(C(=O)Nc1cc(Cl)c(C#N)cn1)c1ccc(CO)c(C=O)n1` [Compound 22, 3-(4-chloro-5-cyanopyrid-2-yl)-1-(6-formyl-5-(hydroxymethyl)pyrid-2-yl)-1-methylurea], the negative-log IC50 (pIC50) in experiment [1] was less than 6.00; in experiment [2], less than 6.00; in experiment [3], 6.00 to 7.00; in experiment [4], less than 6.00.

As to `C[C@H](CO)Oc1cc(NC(=O)N(C)c2ccc(CN3CCN(C)CC3=O)c(C=O)n2)ncc1C#N` [Compound 25, (R)-3-(5-cyano-4-((1-hydroxyprop-2-yl)oxy)pyrid-2-yl)-1-(6-formyl-5-((4-methyl-2-carbonylpiperazin-1-yl)methyl)pyrid-2-yl)-1-methylurea], the pIC50 in experiment [1] was less than 6.00; in experiment [2], less than 6.00; in experiment [3] it was more than 8.00; in experiment [4] it was less than 6.00.
